Reference: patent US8455475B2 (Gruenenthal GmbH, priority 2009, dated 2013)

Biological target: T1, rat B1R (bradykinin receptor 1) (Rattus norvegicus, UniProt P97583)
T1 construct: expressed in transfected cells; host or cells: CHO K1 cells
T1 sequence (P97583 1-337): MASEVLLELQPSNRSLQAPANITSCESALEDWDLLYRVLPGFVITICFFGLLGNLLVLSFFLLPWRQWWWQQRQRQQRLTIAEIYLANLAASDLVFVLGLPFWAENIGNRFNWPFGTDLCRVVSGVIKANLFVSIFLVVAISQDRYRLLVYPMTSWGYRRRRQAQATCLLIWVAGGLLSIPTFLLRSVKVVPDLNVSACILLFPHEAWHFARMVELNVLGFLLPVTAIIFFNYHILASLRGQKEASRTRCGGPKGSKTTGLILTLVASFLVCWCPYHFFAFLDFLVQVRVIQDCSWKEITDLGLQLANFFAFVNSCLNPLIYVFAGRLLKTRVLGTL
Assay: FLIPR Ca2+ assay (Fluo-4) on CHO K1 cells stably transfected with the B1R gene of the rat (rB1R cells): % inhibition at 10 μM / IC50, agonist Des-Arg9-bradykinin
Format: cell-based
Conditions: CHO-K1, rat B1R
Outline: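 Antagonism is measured as the drop in peak Fluo-4 Ca2+ signal when the EC80 agonist follows 10–20 min compound exposure. The single-point screen uses 10 μM; IC50 uses several concentrations. Values are given as % of maximal achievable inhibition.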

Row | inhibition at 10 µM | SMILES
1 | 51% | O=C(NC1CCc2ccc(C(=O)N3CCC4(CCN(Cc5c(F)cccc5F)CC4)C3)cc21)c1ccccc1Cl (centres unmarked) [IND_CC-504, 2-Chloro-N-[6-[8-[(2,6-difluoro-phenyl)-methyl]-2,8-diazaspiro[4.5]decane-2-carbonyl]-2,3-dihydro-1H-inden-1-yl]-benzamide]
2 | 67% | N#Cc1cc(S(=O)(=O)N2CCC3(CCN(C(=O)c4ccc5c(c4)C(N(C(=O)c4ccccc4Cl)C4CC4)CC5)C3)CC2)ccc1F (centres unmarked) [IND_CC-617, 2-Chloro-N-[6-[8-[(3-cyano-4-fluoro-phenyl)sulfonyl]-2,8-diazaspiro[4.5]-decane-2-carbonyl]-2,3-dihydro-1H-inden-1-yl]-N-cyclopropyl-benzamide]
3 | 74% | O=C(NC1CCc2ccc(C(=O)N3CCC4(CCN(Cc5c(F)cccc5Cl)CC4)CC3)cc21)c1cccc(Cl)c1Cl (centres unmarked) [IND_CC-727, 2,3-Dichloro-N-[6-[9-[(2-chloro-6-fluoro-phenyl)-methyl]-3,9-diazaspiro[5.5]undecane-3-carbonyl]-2,3-dihydro-1H-inden-1-yl]-benzamide]
4 | 61% | CN(C(=O)c1ccccc1Cl)C1CCc2ccc(C(=O)N3CCC4(CCN(Cc5ccc6nccnc6c5)CC4)C3)cc21 (centres unmarked) [IND_CC-506, 2-Chloro-N-methyl-N-[6-[8-(quinoxalin-6-yl-methyl)-2,8-diazaspiro[4.5]decane-2-carbonyl]-2,3-dihydro-1H-inden-1-yl]-benzamide]
5 | 54% | O=C(NC1CCc2ccc(C(=O)N3CCC4(CCN(Cc5ccc[nH]5)CC4)C3)cc21)c1cc(Cl)ccc1F (centres unmarked) [IND_CC-620, 5-Chloro-2-fluoro-N-[6-[8-(1H-pyrrol-2-yl-methyl)-2,8-diazaspiro[4.5]decane-2-carbonyl]-2,3-dihydro-1H-inden-1-yl]-benzamide]
6 | 94% | O=C(NC1CCc2ccc(C(=O)N3CCC4(CCN(Cc5cccnc5)CC4)CC3)cc21)c1ccccc1Cl (centres unmarked) [IND_CC-511, 2-Chloro-N-[6-[9-(pyridin-3-yl-methyl)-3,9-diazaspiro[5.5]undecane-3-carbonyl]-2,3-dihydro-1H-inden-1-yl]-benzamide]
7 | 78% | O=C(NC1CCc2ccc(C(=O)N3CCC4(CCN(Cc5ccc(F)c(F)c5)CC4)CC3)cc21)c1cc(C(F)(F)F)ccc1Cl (centres unmarked) [IND_CC-645, 2-Chloro-N-[6-[9-[(3,4-difluoro-phenyl)-methyl]-3,9-diazaspiro[5.5]undecane-3-carbonyl]-2,3-dihydro-1H-inden-1-yl]-5-(trifluoromethyl)-benzamide]
8 | 70% | O=C(NCc1ccc(Cl)c(Cl)c1)N1CCC2(CC1)CCN(C(=O)c1ccc3c(c1)C(N(C(=O)c1ccccc1Cl)C1CC1)CC3)C2 (centres unmarked) [IND_CC-721, 2-[3-[(2-Chloro-benzoyl)-cyclopropyl-amino]-2,3-dihydro-1H-indene-5-carbonyl]-N-[(3,4-dichlorophenyl)-methyl]-2,8-diazaspiro[4.5]decane-8-carboxylic acid amide]
9 | 73% | Cc1nc(CN2CCC3(CC2)CCN(C(=O)c2ccc4c(c2)C(NC(=O)c2ccccc2Cl)CC4)C3)c[nH]1 (centres unmarked) [IND_CC-554, 2-Chloro-N-[6-[8-[(2-methyl-1H-imidazol-4-yl)-methyl]-2,8-diazaspiro[4.5]decane-2-carbonyl]-2,3-dihydro-1H-inden-1-yl]-benzamide]
10 | 95% | Cc1noc(C)c1CN1CCC2(CC1)CCN(C(=O)c1ccc3c(c1)C(NC(=O)c1ccccc1Cl)CC3)C2 (centres unmarked) [IND_CC-560, 2-Chloro-N-[6-[8-[(3,5-dimethyl-isoxazol-4-yl)-methyl]-2,8-diazaspiro[4.5]decane-2-carbonyl]-2,3-dihydro-1H-inden-1-yl]-benzamide]
11 | 99% | COc1ccc(C(=O)N(C)C2CCc3ccc(C(=O)N4CCC5(CC4)CCN(c4ccncc4)CC5)cc32)c(Cl)c1 (centres unmarked) [IND_CC-201, 2-Chloro-4-methoxy-N-methyl-N-[6-(9-pyridin-4-yl-3,9-diazaspiro[5.5]undecane-3-carbonyl)-2,3-dihydro-1H-inden-1-yl]-benzamide]
12 | 76% | Cc1nc(CN2CCC3(CC2)CCN(C(=O)c2ccc4c(c2)C(NC(=O)c2cc(C(F)(F)F)ccc2Cl)CC4)CC3)c[nH]1 (centres unmarked) [IND_CC-662, 2-Chloro-N-[6-[9-[(2-methyl-1H-imidazol-4-yl)-methyl]-3,9-diazaspiro[5.5]-undecane-3-carbonyl]-2,3-dihydro-1H-inden-1-yl]-5-(trifluoromethyl)benzamide]
13 | 70% | O=C(NC1CCc2ccc(C(=O)N3CCC4(CCN(Cc5ccc6nccnc6c5)CC4)C3)cc21)c1cccc(Cl)c1Cl (centres unmarked) [IND_CC-745, 2,3-Dichloro-N-[6-[8-(quinoxalin-6-yl-methyl)-2,8-diazaspiro[4.5]decane-2-carbonyl]-2,3-dihydro-1H-inden-1-yl]-benzamide]
14 | 53% | O=C(NC1CCc2ccc(CC(=O)N3CCC4(CCN(CC5CCCCC5)CC4)C3)cc21)c1ccccc1Cl (centres unmarked) [IND_CC-807, 2-Chloro-N-[6-[2-[8-(cyclohexyl-methyl)-3,8-diazaspiro[4.5]decan-3-yl]-2-oxo-ethyl]-2,3-dihydro-1H-inden-1-yl]-benzamide]
15 | 69% | CCn1cc(CN2CCC3(CC2)CCN(C(=O)c2ccc4c(c2)C(NC(=O)c2cccc(Cl)c2Cl)CC4)CC3)c(C)n1 (centres unmarked) [IND_CC-752, 2,3-Dichloro-N-[6-[9-[(1-ethyl-3-methyl-1H-pyrazol-4-yl)-methyl]-3,9-diazaspiro[5.5]undecane-3-carbonyl]-2,3-dihydro-1H-inden-1-yl]-benzamide]
16 | 99% | COc1cccc(F)c1CN1CCC2(CC1)CCN(C(=O)c1ccc3c(c1)C(NC(=O)c1ccccc1Cl)CC3)C2 (centres unmarked) [IND_CC-546, 2-Chloro-N-[6-[8-[(2-fluoro-6-methoxy-phenyl)-methyl]-2,8-diazaspiro[4.5]decane-2-carbonyl]-2,3-dihydro-1H-inden-1-yl]-benzamide]
17 | 102% | CN(C(=O)C1CCCC1)C1CCc2ccc(C(=O)N3CCC4(CC3)CCN(c3ccncc3)CC4)cc21 (centres unmarked) [IND_CC-392, N-Methyl-N-[6-(9-pyridin-4-yl-3,9-diazaspiro[5.5]undecane-3-carbonyl)-2,3-dihydro-1H-inden-1-yl]-cyclopentanecarboxylic acid amide]
18 | 78% | O=C(NC1CCc2ccc(C(=O)N3CCC4(CCN(Cc5c[nH]cn5)CC4)CC3)cc21)c1cc(C(F)(F)F)ccc1Cl (centres unmarked) [IND_CC-639, 2-Chloro-N-[6-[9-(1H-imidazol-4-yl-methyl)-3,9-diazaspiro[5.5]undecane-3-carbonyl]-2,3-dihydro-1H-inden-1-yl]-5-(trifluoromethyl)-benzamide]
19 | 75% | CC(C)(C)CC(=O)N1CCC2(CC1)CCN(C(=O)c1ccc3c(c1)C(NC(=O)c1sccc1Cl)CC3)C2 (centres unmarked) [IND_CC-583, 3-Chloro-N-[6-[8-(3,3-dimethyl-butanoyl)-2,8-diazaspiro[4.5]decane-2-carbonyl]-2,3-dihydro-1H-inden-1-yl]-thiophene-2-carboxylic acid amide]
20 | 57% | N#Cc1ccccc1CN1CCC2(CC1)CCN(C(=O)c1ccc3c(c1)C(NC(=O)c1cc(C(F)(F)F)ccc1Cl)CC3)CC2 (centres unmarked) [IND_CC-668, 2-Chloro-N-[6-[9-[(2-cyano-phenyl)-methyl]-3,9-diazaspiro[5.5]undecane-3-carbonyl]-2,3-dihydro-1H-inden-1-yl]-5-(trifluoromethyl)-benzamide]
